Results from patent US5929236A, “2-substituted morpholine and thiomorpholine derivatives as GABA-B antagonists” (Schering Corporation, priority 1995, dated 1999).

Key:
GABAB receptors = target: T1, GABAB receptors (Rattus norvegicus, UniProt Q9Z0U4); test: GABAB Receptor Binding Assay ([3H]GABA, rat brain synaptosomes)
T1 construct: Rat brain synaptosomes are used as a source of GABAB receptors; from tissue; host or cells: rat brain synaptosomes
Method: GABAB Receptor Binding Assay
The percentage inhibition of GABA binding to GABAB receptors is measured by tritiated GABA ([^3 H]GABA) determination of the degree of binding by scintillation counting. Rat brain synaptosomes are used as a source of GABAB receptors. An incubation medium is prepared from the following: 20 μg/mL of the compound to be tested as a solution in 1% DMSO/water; 5 nM [^3 H]GABA; 50 mM Tris buffer (pH 7.5); and 2.5 mM CaCl2. The medium also contains 40 μM isoguvacine to selectively block binding to GABAA receptors. The synaptosome (200 μg/mL) is added to the incubation medium and incubated for 30 minutes at 20° C. The incubation is terminated by filtration and counted to determine the percentage inhibition of [^3 H]-GABA binding. The results are reported as IC50 values for those compounds inhibiting [^3 H]-GABA binding by >50%.

[1] = target: prejunctional GABAB receptors (Cavia porcellus, UniProt A0A286X9P6); test: In Vitro Assay (guinea pig trachea, reversal of baclofen inhibition of EFS-induced contractions); assay type: cell-based, guinea pig (male Hartley); details: 30 μmol/L baclofen; for IC30: guinea pig trachea
Method: Male Hartley guinea pigs (450-650 g) are sacrificed by stunning and the trachea removed proximal to the carina and cut into 5 mm segments. The segments are attached to isometric force displacement transducers (Model FT03: Grass Instruments) and suspended in 15 mL organ baths filled with low Ca^2+ (0.6 mmol/L) Tyrode's buffer solution (pH 7.4) supplemented with 5.6 mmol/L glucose, 30 μmol/L choline and 2 μmol/L indomethacin. The solution is bubbled with a mixture of 95% O2 +5% CO2 and maintained at 37° C. The tracheal segments are allowed to equilibrate for 90 minutes under a resting tension of 0.5 g.
Platinum electrodes are placed on either side of the trachea and electrical field stimulation (EFS) (20 V, 8 Hz, 0.5 ms pulse for 5 s) was generated each minute from an electrical stimulator (Model S-88: Grass Instruments) and delivered to the electrodes through a stimulus distributor (Buxco Electronics). The stimulation parameters are chosen as appropriate for producing cholinergic contractions of the trachea that are sensitive to the inhibitory effects of compounds acting at prejunctional GABAB receptors. Contractile responses were recorded on a polygraph (Harvard Apparatus). The compound to be tested is added to the bath 10 min. before addition of 30 μmol/L baclofen. The effect of baclofen treatment in the absence or in the presence of the compound to be tested is expressed as a percent inhibition of EFS-induced contractions.

GABAB = details: literature, in words; cited from earlier work
[2] = literature (Olpe, et al), in words; cited from earlier work
[3] = tested on: Respiratory Depressant Effect of Baclofen; test: Reversal of the Respiratory Depressant Effect of Baclofen via icv Administration; assay type: in vivo, guinea pig; details: baclofen plus vehicle
Method: (§1) Animal Model for Respiratory Depression:
(§2) Place unanesthetized guinea pigs in a head-out plethysmograph and expose to a CO2 enriched gas mixture (10% CO2, 21% O2, 69% N2) for 10 min., (see Danko, et al., J. Pharm. Methods, 19, 165-173 (1988)). Plethysmograph pressure is detected with a transducer connected to a chart recorder. Minute ventilation is calculated as the product of tidal volume and respiratory frequency. The compound to be tested is administered orally, subcutaneously (sc), intraperitoneally (ip) or via an intracerebroventricular route (icv). Baclofen (3 mg/kg, sc) was given 30 min before exposure to the CO2 enriched gas. When given by the oral route, the compounds is administered 1, 3, 5 or 7 h before exposure to CO2 enriched gas. A 40 or 30 min. preteratment is used for the subcutaneous and intraperitoneal routes, respectively. The vehicle for oral, sc or ip administration is saline. For icv administration, single icv cannulae are placed in the lateral ventricle of anesthetized guinea pigs, (see McLeod, et al., Eur. J. Pharmacol., 209, 141-142 (1988)). The animals are allowed to recover approximately one week prior to use for ventilation experiments. The vehicle for icv administration is artificial cerebrospinal fluid (CSF).

[4] = tested on: Respiratory Depressant Effect of Baclofen; test: Inhibition of Respiratory Depressant Effect of Baclofen; assay type: in vivo, guinea pig; details: baclofen alone (3 mg/kg, sc)
Method: as §1
as §2, with “When given by the oral route, the compounds is administered 1, 3, 5 or 7 h before exposure to CO2 enriched gas.” left out

[5] = 5 nM [3H]GABA, rat brain synaptosomes, 20° C., 30 min

T1 sequence (Q9Z0U4 17-960 limits assumed): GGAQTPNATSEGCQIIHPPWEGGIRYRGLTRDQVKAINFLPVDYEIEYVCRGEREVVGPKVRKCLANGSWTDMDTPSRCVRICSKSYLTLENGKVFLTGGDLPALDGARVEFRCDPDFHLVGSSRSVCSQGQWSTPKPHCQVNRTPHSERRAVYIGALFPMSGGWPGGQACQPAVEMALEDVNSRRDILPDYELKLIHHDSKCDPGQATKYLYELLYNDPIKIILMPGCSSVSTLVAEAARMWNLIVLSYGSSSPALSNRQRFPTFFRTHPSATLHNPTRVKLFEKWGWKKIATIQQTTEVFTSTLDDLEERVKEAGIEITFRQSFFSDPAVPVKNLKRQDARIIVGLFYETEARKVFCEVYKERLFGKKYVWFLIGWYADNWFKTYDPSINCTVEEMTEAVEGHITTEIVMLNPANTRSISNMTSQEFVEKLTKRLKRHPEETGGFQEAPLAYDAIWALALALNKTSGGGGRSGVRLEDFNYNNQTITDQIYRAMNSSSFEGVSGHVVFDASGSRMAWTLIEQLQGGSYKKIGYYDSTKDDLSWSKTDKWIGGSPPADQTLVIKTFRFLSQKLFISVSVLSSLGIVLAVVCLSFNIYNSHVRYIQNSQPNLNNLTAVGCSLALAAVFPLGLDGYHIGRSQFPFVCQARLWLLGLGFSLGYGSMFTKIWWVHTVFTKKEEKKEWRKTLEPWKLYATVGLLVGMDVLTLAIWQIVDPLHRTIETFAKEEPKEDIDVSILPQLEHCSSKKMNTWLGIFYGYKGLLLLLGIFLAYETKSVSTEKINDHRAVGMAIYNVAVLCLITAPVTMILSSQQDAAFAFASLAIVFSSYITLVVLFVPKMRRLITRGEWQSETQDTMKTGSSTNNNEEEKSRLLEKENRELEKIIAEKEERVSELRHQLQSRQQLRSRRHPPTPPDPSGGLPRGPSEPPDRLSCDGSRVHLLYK
T1 sequence (O88871 41-940 partner): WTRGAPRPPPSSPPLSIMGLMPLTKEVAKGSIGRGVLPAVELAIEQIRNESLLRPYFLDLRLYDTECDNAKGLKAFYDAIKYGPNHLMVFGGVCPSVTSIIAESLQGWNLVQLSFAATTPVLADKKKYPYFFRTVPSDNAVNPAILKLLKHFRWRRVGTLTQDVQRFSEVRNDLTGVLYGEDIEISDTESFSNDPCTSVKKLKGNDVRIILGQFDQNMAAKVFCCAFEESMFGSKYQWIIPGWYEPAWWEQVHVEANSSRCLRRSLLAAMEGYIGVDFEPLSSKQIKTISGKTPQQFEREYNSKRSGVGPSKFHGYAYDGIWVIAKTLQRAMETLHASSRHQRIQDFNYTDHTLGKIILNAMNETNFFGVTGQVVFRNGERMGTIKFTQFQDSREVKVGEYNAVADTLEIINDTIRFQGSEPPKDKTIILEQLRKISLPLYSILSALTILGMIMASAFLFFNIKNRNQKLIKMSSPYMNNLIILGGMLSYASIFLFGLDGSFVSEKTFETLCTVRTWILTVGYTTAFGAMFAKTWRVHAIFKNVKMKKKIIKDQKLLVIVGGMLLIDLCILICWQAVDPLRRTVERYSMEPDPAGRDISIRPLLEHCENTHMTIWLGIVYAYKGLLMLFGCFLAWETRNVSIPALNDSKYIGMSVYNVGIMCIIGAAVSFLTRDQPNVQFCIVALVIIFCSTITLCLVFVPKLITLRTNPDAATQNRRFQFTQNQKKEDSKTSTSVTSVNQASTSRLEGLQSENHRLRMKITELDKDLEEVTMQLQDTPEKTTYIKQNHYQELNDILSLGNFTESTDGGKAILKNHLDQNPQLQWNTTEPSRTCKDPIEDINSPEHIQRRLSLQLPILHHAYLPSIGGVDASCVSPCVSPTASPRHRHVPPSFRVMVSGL
Chain of prejunctional GABAB receptors (A0A286X9P6 30-844): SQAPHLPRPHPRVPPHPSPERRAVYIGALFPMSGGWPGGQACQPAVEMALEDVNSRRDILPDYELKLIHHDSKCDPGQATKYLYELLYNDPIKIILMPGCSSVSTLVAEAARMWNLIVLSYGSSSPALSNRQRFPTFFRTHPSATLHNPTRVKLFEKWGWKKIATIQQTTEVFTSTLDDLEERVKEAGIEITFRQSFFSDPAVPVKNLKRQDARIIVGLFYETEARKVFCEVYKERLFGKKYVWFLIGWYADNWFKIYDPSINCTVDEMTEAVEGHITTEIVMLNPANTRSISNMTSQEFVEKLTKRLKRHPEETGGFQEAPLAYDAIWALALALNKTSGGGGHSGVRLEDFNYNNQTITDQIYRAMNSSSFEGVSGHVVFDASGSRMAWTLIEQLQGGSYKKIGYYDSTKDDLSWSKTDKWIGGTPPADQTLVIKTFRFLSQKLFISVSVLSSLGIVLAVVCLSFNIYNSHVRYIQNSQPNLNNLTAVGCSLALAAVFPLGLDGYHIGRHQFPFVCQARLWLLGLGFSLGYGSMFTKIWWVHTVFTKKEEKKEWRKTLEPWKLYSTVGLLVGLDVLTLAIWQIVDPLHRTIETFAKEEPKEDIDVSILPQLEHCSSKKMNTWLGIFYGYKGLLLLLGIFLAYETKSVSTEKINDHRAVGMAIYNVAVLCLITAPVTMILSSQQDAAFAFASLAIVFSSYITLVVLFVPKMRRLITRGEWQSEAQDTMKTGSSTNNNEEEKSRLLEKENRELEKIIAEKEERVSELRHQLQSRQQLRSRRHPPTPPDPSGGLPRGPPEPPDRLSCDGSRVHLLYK
Chain of prejunctional GABAB receptors (H0V741 1-820 partner): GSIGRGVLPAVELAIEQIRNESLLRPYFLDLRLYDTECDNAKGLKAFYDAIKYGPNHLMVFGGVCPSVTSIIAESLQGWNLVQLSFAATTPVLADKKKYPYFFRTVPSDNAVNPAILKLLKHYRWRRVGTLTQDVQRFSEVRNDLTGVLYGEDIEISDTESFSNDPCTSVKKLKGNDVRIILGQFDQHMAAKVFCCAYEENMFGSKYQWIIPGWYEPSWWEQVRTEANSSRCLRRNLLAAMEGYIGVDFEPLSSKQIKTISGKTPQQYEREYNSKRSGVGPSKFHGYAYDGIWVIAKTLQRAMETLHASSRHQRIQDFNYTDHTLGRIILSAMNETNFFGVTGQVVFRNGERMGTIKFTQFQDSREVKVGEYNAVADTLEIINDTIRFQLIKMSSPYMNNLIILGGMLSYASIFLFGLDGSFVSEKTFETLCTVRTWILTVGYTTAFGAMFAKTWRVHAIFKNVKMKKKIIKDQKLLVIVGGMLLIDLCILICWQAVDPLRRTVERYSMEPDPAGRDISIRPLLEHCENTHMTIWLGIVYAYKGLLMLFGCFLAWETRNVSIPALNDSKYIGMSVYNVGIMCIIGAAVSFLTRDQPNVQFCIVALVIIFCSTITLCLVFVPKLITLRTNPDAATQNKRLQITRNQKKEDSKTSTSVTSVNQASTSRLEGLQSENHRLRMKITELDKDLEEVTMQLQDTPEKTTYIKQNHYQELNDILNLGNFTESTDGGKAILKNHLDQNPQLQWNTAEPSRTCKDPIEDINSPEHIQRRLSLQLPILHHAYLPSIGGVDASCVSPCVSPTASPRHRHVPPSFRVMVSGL

Row | IC50 (GABAB receptors; [5]) [µM] | inhibition at 100 µM ([1]; 100 μM) [%] | inhibition at 300 µM [1] [%] | Compound | further results
1 | 14 | 82 | 95 | CC[C@@H]1CO[C@@H](CC(=O)O)CN1 [Example 11] | 
2 |  |  |  | NCC(O)(CS(=O)(=O)O)c1ccc(Cl)cc1 (stereo not drawn) [2-hydroxy saclofen] | GABAB receptor affinity (GABAB): low affinity
3 | 6 | 96 | 100 | CC1(C)COC(CC(=O)O)CN1 (stereo not drawn) [Example 2] | IC30 [1]: 1.5 µM
4 | 100 | 50 |  | CC[C@@H]1CO[C@H](CC(=O)O)CN1 | 
5 | 10 | 95 | 97 | O=C(O)CC1CNC2(CCCC2)CO1 (stereo not drawn) [Example 9] | 
6 |  |  |  | CCOC(OCC)P(=O)(O)CCCN [CGP 35348, 3-aminopropyl(diethoxymethyl)phosphinic acid] | GABAB receptor affinity (GABAB): low receptor affinity (comparable to 2-hydroxy saclofen); Penetration of the blood/brain barrier [2]: can penetrate the blood/brain barrier
7 | 20 | 74 | 95 | C[C@H]1CO[C@@H](CC(=O)O)CN1 (relative stereo) [Example 14] | 
8 | > 100 |  | 42 | CC1(C)COC(CC(=O)O)CN1 (single isomer, unassigned) [Example 6B] | In Vitro % inhibition ([1]; 100 μM): 8%
9 | > 100 | 21 |  | CC1CNCC(CC(=O)O)S1 (stereo not drawn) | 
10 |  | 44 |  | O=C(O)CC1CNCCS1 (stereo not drawn) [Example 16] | IC50 (GABAB receptors; unit inferred): > 100 µM
11 | 50 | 59 | 46 | O=C(O)CC1CNCCO1 (stereo not drawn) | 
12 | 30 | 63 | 75 | C[C@@H]1CO[C@@H](CC(=O)O)CN1 (relative stereo) [Example 14A] | 
13 | 100 ± 40 | 50 |  | CC[C@]1(CO)CO[C@@H](CC(=O)O)CN1 (relative stereo) [Example 18] | 
14 |  |  |  | C[C@@]1(CO)CO[C@@H](CC(=O)O)CN1 (relative stereo) [Example 21] | IC30 [1]: 0.85 µM
15 | 37 ± 12 | 76 |  | O=C(O)CC1CNC2(CC2)CO1 (stereo not drawn) [Example 9A] | 
16 | 3 |  |  | CP(=O)(O)CC1CNC2(CCCC2)CO1 (stereo not drawn) | IC30 [1]: 3.3 µM
17 | 20 | 81 | 88 | C[C@@H]1CS[C@@H](CC(=O)O)CN1 (relative stereo) [Example 13C] | 
18 | 60 | 55 |  | C[C@H]1CS[C@@H](CC(=O)O)CN1 (relative stereo) [Example 13B] | 
19 | > 100 | 17 |  | CC[C@H]1CO[C@H](CC(=O)O)CN1 | 
20 | 19 ± 10 | 90 | 99 | CC[C@@]1(CO)CO[C@@H](CC(=O)O)CN1 (relative stereo) [Example 19] | 
21 | > 100 | 31 |  | CP(=O)(O)CC1CN(Cc2ccccc2)CCO1 (stereo not drawn) [Example 23] | 
22 | 3.8 |  |  | C[C@]1(CO)CO[C@@H](CC(=O)O)CN1 (relative stereo) [Example 20] | inhibition at 30 µM ([1]; 30 μM): 24%
23 |  |  |  | NCC(CC(=O)O)c1ccc(Cl)cc1 (stereo not drawn) [Baclofen, reference compound] | Inhibition of ventilation [3]: 82 ± 5%; Inhibition of ventilation [4]: 44-60%

Row | Compound | IC50 (GABAB receptors; [5]) [µM] | inhibition at 100 µM ([1]; 100 μM) [%] | inhibition at 300 µM [1] [%] | further results
24 | CP(=O)(O)CC1CNCCO1 (stereo not drawn) [Example 24] | 6 | 100 | 98 | 
25 | CC1(C)COC(CP(C)(=O)O)CN1 (stereo not drawn) | 2 | 100 |  | IC30 [1]: 1.9 µM
